Experiments:
[1] = tested on: antibodies in sera from SARS patients (sera 1a, 1b, 2, 6, 37, 62, London, SARS-yellow, SARS-green); assay type: binding, human; parameters: Binding of serum 6 to linear peptides of protein X1 of SARS-CoV Urbani / Binding of serum 37 to linear peptides of protein X1 of SARS-CoV Urbani / Binding of serum 6 to looped/cyclic peptide (PEPSCAN-ELISA) / Binding of serum 37 to looped/cyclic peptide (PEPSCAN-ELISA) / Binding of serum 37 to looped/cyclic peptides of protein X1 of SARS-CoV Urbani / Binding of serum 6 to linear peptides of protein X2 / Binding of serum 37 to linear peptides of protein X2 / Binding of serum 37 to looped/cyclic peptides of protein X2 of SARS-CoV Urbani / Binding of serum 6 to linear peptides of protein M of SARS-CoV Urbani / Binding of serum 37 to linear peptides of protein M of SARS-CoV Urbani / Binding of serum 6 to looped/cyclic peptides of protein M of SARS-CoV Urbani / Binding of serum 37 to looped/cyclic peptides of protein M of SARS-CoV Urbani / Binding of serum 6 to linear peptides of protein X3 of SARS-CoV Urbani / Binding of serum 37 to linear peptides of protein X3 of SARS-CoV Urbani / Binding of serum 37 to looped/cyclic peptides of protein X3 of SARS-CoV Urbani / Binding of serum 6 to linear peptides of protein X4 of SARS-CoV Urbani / Binding of serum 37 to linear peptides of protein X4 of SARS-CoV Urbani / Binding of serum 37 to looped/cyclic peptides of protein X4 of SARS-CoV Urbani / Binding of serum 6 to linear peptides of protein X5 of SARS-CoV Urbani / Binding of serum 37 to linear peptides of protein X5 of SARS-CoV Urbani / Binding of serum 37 to looped/cyclic peptides of protein X5 of SARS-CoV Urbani / Binding of serum 6 to linear peptides of protein N of SARS-CoV Urbani / Binding of serum 37 to linear peptides of protein N of SARS-CoV Urbani / Binding of serum 6 to linear peptide (PEPSCAN-ELISA) / Binding of serum 1a to looped/cyclic peptides of protein N of SARS-CoV Urbani / Binding of serum 1b to looped/cyclic peptides of protein N of SARS-CoV Urbani / Binding of serum 2 to looped/cyclic peptides of protein N of SARS-CoV Urbani / Binding of serum 6 to looped/cyclic peptides of protein N of SARS-CoV Urbani / Binding of serum 37 to looped/cyclic peptides of protein N of SARS-CoV Urbani / Binding of serum 62 to looped/cyclic peptides of protein N of SARS-CoV Urbani / Binding of serum London to looped/cyclic peptides of protein N of SARS-CoV Urbani / Binding of serum SARS-green to looped/cyclic peptides of protein N of SARS-CoV Urbani: unit not given here
[2] = tested on: control sera (pooled serum of ten healthy LUMC hospital workers; commercial negative donor pooled serum from the Dutch bloodbank); assay type: binding, human; parameters: Binding of Control serum LUMC to linear peptides / Binding of Control serum Blood-bank to linear peptides / Binding of Control serum LUMC to looped peptides / Binding of Control Serum Blood-Bank to Looped peptides / Binding of Control serum LUMC to linear peptides of the protein M of SARS-CoV Urbani / Binding of Control serum Blood-bank to linear peptides of the protein M of SARS-CoV Urbani / Binding of Control serum LUMC to looped peptides of the protein M of SARS-CoV Urbani / Binding of Control Serum Blood-Bank to Looped peptides of the protein M of SARS-CoV Urbani: unit not given here
[3] = tested on: rabbit serum obtained by immunizing a rabbit with the SARS-CoV strain Frankfurt 1; assay type: binding; parameters: Binding of a rabbit serum to linear peptides / Binding of a rabbit serum to looped peptides / Rabbit serum linear peptides / Rabbit serum looped peptides / Binding of a rabbit serum to linear peptides of protein N of SARS-CoV Urbani (Rabbit serum linear peptides) / Binding of a rabbit serum to looped/cyclic peptides of protein N of SARS-CoV Urbani (Rabbit serum looped peptides): unit not given here

KTHRMCKYTQSTALQ
Binding of serum 1a to linear peptides of protein X2 [1]: 0.7
Binding of serum 1a to looped/cyclic peptides of protein X2 of SARS-CoV Urbani [1]: 0.4
Binding of serum 1b to linear peptides of protein X2 [1]: 0.5
Binding of serum 1b to looped/cyclic peptides of protein X2 of SARS-CoV Urbani [1]: 0.4
Binding of serum 2 to linear peptides of protein X2 [1]: 0.6
Binding of serum 2 to looped/cyclic peptides of protein X2 of SARS-CoV Urbani [1]: 0.2
Binding of serum 6 to linear peptides of protein X2 [1]: 0.5
Binding of serum 6 to looped/cyclic peptides of protein X2 of SARS-CoV Urbani [1]: 0.4
Binding of serum 37 to linear peptides of protein X2 [1]: 0.7
Binding of serum 37 to looped/cyclic peptides of protein X2 of SARS-CoV Urbani [1]: 0.2
Binding of serum 62 to linear peptides of protein X2 [1]: 0.6
Binding of serum 62 to looped/cyclic peptides of protein X2 of SARS-CoV Urbani [1]: 0.4
Binding of serum London to linear peptides of protein X2 [1]: 0.5
Binding of serum London to looped/cyclic peptides of protein X2 of SARS-CoV Urbani [1]: 0.2
Binding of serum SARS-green to linear peptides of protein X2 [1]: 0.5
Binding of serum SARS-green to looped/cyclic peptides of protein X2 of SARS-CoV Urbani [1]: 0.2
Binding of serum SARS-yellow to linear peptides of protein X2 [1]: 0.8
Binding of serum SARS-yellow to looped/cyclic peptides of protein X2 of SARS-CoV Urbani [1]: 0.2
Binding of Control Serum Blood-Bank to Looped peptides [2]: 0.5
Binding of Control serum Blood-bank to linear peptides [2]: 0.6
Binding of Control serum LUMC to linear peptides [2]: 0.5
Binding of Control serum LUMC to looped peptides [2]: 0.4
Binding of a rabbit serum to linear peptides [3]: 0.3
Binding of a rabbit serum to looped peptides [3]: 0.3

VLPFHRWHTMVQTCT
Binding of serum 1a to linear peptides of protein X5 of SARS-CoV Urbani [1]: 0.8
Binding of serum 1a to looped/cyclic peptides of protein X5 of SARS-CoV Urbani [1]: 0.7
Binding of serum 1b to linear peptides of protein X5 of SARS-CoV Urbani [1]: 0.6
Binding of serum 1b to looped/cyclic peptides of protein X5 of SARS-CoV Urbani [1]: 0.5
Binding of serum 2 to linear peptides of protein X5 of SARS-CoV Urbani [1]: 0.7
Binding of serum 2 to looped/cyclic peptides of protein X5 of SARS-CoV Urbani [1]: 0.7
Binding of serum 6 to linear peptides of protein X5 of SARS-CoV Urbani [1]: 0.5
Binding of serum 6 to looped/cyclic peptides of protein X5 of SARS-CoV Urbani [1]: 0.4
Binding of serum 37 to linear peptides of protein X5 of SARS-CoV Urbani [1]: 0.7
Binding of serum 37 to looped/cyclic peptides of protein X5 of SARS-CoV Urbani [1]: 0.5
Binding of serum 62 to linear peptides of protein X5 of SARS-CoV Urbani [1]: 0.7
Binding of serum 62 to looped/cyclic peptides of protein X5 of SARS-CoV Urbani [1]: 0.3
Binding of serum London to linear peptides of protein X5 of SARS-CoV Urbani [1]: 0.8
Binding of serum London to looped/cyclic peptides of protein X5 of SARS-CoV Urbani [1]: 0.2
Binding of serum SARS-green to linear peptides of protein X5 of SARS-CoV Urbani [1]: 0.6
Binding of serum SARS-green to looped/cyclic peptides of protein X5 of SARS-CoV Urbani [1]: 1.4
Binding of serum SARS-yellow to linear peptides of protein X5 of SARS-CoV Urbani [1]: 0.4
Binding of serum SARS-yellow to looped/cyclic peptides of protein X5 of SARS-CoV Urbani [1]: 0.3
Binding of Control Serum Blood-Bank to Looped peptides [2]: 0.6
Binding of Control serum Blood-bank to linear peptides [2]: 0.6
Binding of Control serum LUMC to linear peptides [2]: 0.5
Binding of Control serum LUMC to looped peptides [2]: 0.0
Rabbit serum linear peptides [3]: 0.6
Rabbit serum looped peptides [3]: 0.0

CELYHYQECVRGTTV
Binding of serum 1a to linear peptides of protein X4 of SARS-CoV Urbani [1]: 0.8
Binding of serum 1a to looped/cyclic peptides of protein X4 of SARS-CoV Urbani [1]: 0.8
Binding of serum 1b to linear peptides of protein X4 of SARS-CoV Urbani [1]: 0.7
Binding of serum 1b to looped/cyclic peptides of protein X4 of SARS-CoV Urbani [1]: 0.4
Binding of serum 2 to linear peptides of protein X4 of SARS-CoV Urbani [1]: 0.5
Binding of serum 2 to looped/cyclic peptides of protein X4 of SARS-CoV Urbani [1]: 0.8
Binding of serum 6 to linear peptides of protein X4 of SARS-CoV Urbani [1]: 0.6
Binding of serum 6 to looped/cyclic peptides of protein X4 of SARS-CoV Urbani [1]: 0.5
Binding of serum 37 to linear peptides of protein X4 of SARS-CoV Urbani [1]: 0.9
Binding of serum 37 to looped/cyclic peptides of protein X4 of SARS-CoV Urbani [1]: 0.8
Binding of serum 62 to linear peptides of protein X4 of SARS-CoV Urbani [1]: 0.8
Binding of serum 62 to looped/cyclic peptides of protein X4 of SARS-CoV Urbani [1]: 0.6
Binding of serum London to linear peptides of protein X4 of SARS-CoV Urbani [1]: 0.9
Binding of serum London to looped/cyclic peptides of protein X4 of SARS-CoV Urbani [1]: 0.3
Binding of serum SARS-green to linear peptides of protein X4 of SARS-CoV Urbani [1]: 0.7
Binding of serum SARS-green to looped/cyclic peptides of protein X4 of SARS-CoV Urbani [1]: 0.2
Binding of serum SARS-yellow to linear peptides of protein X4 of SARS-CoV Urbani [1]: 0.6
Binding of serum SARS-yellow to looped/cyclic peptides of protein X4 of SARS-CoV Urbani [1]: 0.4
Binding of Control Serum Blood-Bank to Looped peptides [2]: 0.5
Binding of Control serum Blood-bank to linear peptides [2]: 0.5
Binding of Control serum LUMC to linear peptides [2]: 0.5
Binding of Control serum LUMC to looped peptides [2]: 0.6
Rabbit serum linear peptides [3]: 0.4
Rabbit serum looped peptides [3]: 0.2

KVSTNLCTHSFRKKQ
Binding of serum 1a to looped/cyclic peptides of protein X2 of SARS-CoV Urbani [1]: 0.4
Binding of serum 1b to looped/cyclic peptides of protein X2 of SARS-CoV Urbani [1]: 0.3
Binding of serum 2 to looped/cyclic peptides of protein X2 of SARS-CoV Urbani [1]: 0.5
Binding of serum 6 to looped/cyclic peptides of protein X2 of SARS-CoV Urbani [1]: 0.5
Binding of serum 37 to looped/cyclic peptides of protein X2 of SARS-CoV Urbani [1]: 0.4
Binding of serum 62 to looped/cyclic peptides of protein X2 of SARS-CoV Urbani [1]: 0.6
Binding of serum London to looped/cyclic peptides of protein X2 of SARS-CoV Urbani [1]: 0.2
Binding of serum SARS-green to looped/cyclic peptides of protein X2 of SARS-CoV Urbani [1]: 0.3
Binding of serum SARS-yellow to looped/cyclic peptides of protein X2 of SARS-CoV Urbani [1]: 0.5
Recognition of the peptide by sera of SARS-CoV infected individuals, and form (linear, looped/cyclic) in which it is recognized [1]: recognized in linear form
Binding of Control Serum Blood-Bank to Looped peptides [2]: 0.4
Binding of Control serum Blood-bank to linear peptides [2]: 1.0
Binding of Control serum LUMC to linear peptides [2]: 0.8
Binding of Control serum LUMC to looped peptides [2]: 0.7
Binding of a rabbit serum to linear peptides [3]: 0.3
Binding of a rabbit serum to looped peptides [3]: 0.1

LYSPLFLIVAALVFL
Binding of serum 1a to linear peptides of protein X4 of SARS-CoV Urbani [1]: 0.6
Binding of serum 1a to looped/cyclic peptides of protein X4 of SARS-CoV Urbani [1]: 0.5
Binding of serum 1b to linear peptides of protein X4 of SARS-CoV Urbani [1]: 0.4
Binding of serum 1b to looped/cyclic peptides of protein X4 of SARS-CoV Urbani [1]: 0.3
Binding of serum 2 to linear peptides of protein X4 of SARS-CoV Urbani [1]: 0.4
Binding of serum 2 to looped/cyclic peptides of protein X4 of SARS-CoV Urbani [1]: 0.4
Binding of serum 6 to linear peptides of protein X4 of SARS-CoV Urbani [1]: 0.5
Binding of serum 6 to looped/cyclic peptides of protein X4 of SARS-CoV Urbani [1]: 0.4
Binding of serum 37 to linear peptides of protein X4 of SARS-CoV Urbani [1]: 0.6
Binding of serum 37 to looped/cyclic peptides of protein X4 of SARS-CoV Urbani [1]: 0.5
Binding of serum 62 to linear peptides of protein X4 of SARS-CoV Urbani [1]: 0.6
Binding of serum 62 to looped/cyclic peptides of protein X4 of SARS-CoV Urbani [1]: 0.5
Binding of serum London to linear peptides of protein X4 of SARS-CoV Urbani [1]: 0.6
Binding of serum London to looped/cyclic peptides of protein X4 of SARS-CoV Urbani [1]: 0.2
Binding of serum SARS-green to linear peptides of protein X4 of SARS-CoV Urbani [1]: 0.5
Binding of serum SARS-green to looped/cyclic peptides of protein X4 of SARS-CoV Urbani [1]: 0.4
Binding of serum SARS-yellow to linear peptides of protein X4 of SARS-CoV Urbani [1]: 0.2
Binding of serum SARS-yellow to looped/cyclic peptides of protein X4 of SARS-CoV Urbani [1]: 0.4
Binding of Control Serum Blood-Bank to Looped peptides [2]: 0.6
Binding of Control serum Blood-bank to linear peptides [2]: 0.5
Binding of Control serum LUMC to linear peptides [2]: 0.4
Binding of Control serum LUMC to looped peptides [2]: 0.6
Rabbit serum linear peptides [3]: 0.4
Rabbit serum looped peptides [3]: 0.3

— patent US20070128217A1 (priority 2003, published 2007)
